# Experimental data published in ChEMBL document CHEMBL5154808, “Novel β-Hairpin Antimicrobial Peptides Containing the β-Turn Sequence of -RRRF- Having High Cell Selectivity and Low Incidence of Drug Resistance” (J Med Chem, 2022).
# Where a SMILES comes first, the peptide text is derived from it.
# Tests used:
# Erythrocyte = assay: Hemolytic activity in mouse red blood cells assessed as release of hemoglobin incubated for 1 hr by microplate reader method; assay type: toxicity, cell-based
# Pseudomonas aeruginosa = assay: Antimicrobial activity against Pseudomonas aeruginosa ATCC 27853 assessed as reduction of bacterial growth incubated for 18 hrs by CLSI protocol based broth microdilution method; assay type: functional
# [1] = test system: Staphylococcus epidermidis; assay: Antimicrobial activity against Staphylococcus epidermidis ATCC 12228 assessed as reduction of bacterial growth incubated for 18 hrs by CLSI protocol based broth microdilution method; assay type: functional
# Enterococcus faecalis = assay: Antimicrobial activity against Enterococcus faecalis ATCC 29212 assessed as reduction of bacterial growth incubated for 18 hrs by CLSI protocol based broth microdilution method; assay type: functional
# Bacillus subtilis = assay: Antimicrobial activity against Bacillus subtilis ATCC 23857 assessed as reduction of bacterial growth incubated for 18 hrs by CLSI protocol based broth microdilution method; assay type: functional
# Klebsiella pneumoniae = assay: Antimicrobial activity against Klebsiella pneumoniae ATCC 700603 assessed as reduction of bacterial growth incubated for 18 hrs by CLSI protocol based broth microdilution method; assay type: functional
# Staphylococcus aureus = assay: Antimicrobial activity against Staphylococcus aureus ATCC 25923 assessed as reduction of bacterial growth incubated for 18 hrs by CLSI protocol based broth microdilution method; assay type: functional
# [2] = Cytotoxicity against human HK-2 cells assessed as reduction in cell viability incubated for 1 hr by resazurin based microplate reader method; assay type: toxicity
# Escherichia coli = assay: Antimicrobial activity against Escherichia coli ATCC 25922 assessed as reduction of bacterial growth incubated for 18 hrs by CLSI protocol based broth microdilution method; assay type: functional
Compound,HC10 (Erythrocyte) [µM],MIC (Pseudomonas aeruginosa) [µM],MIC [1] [µM],MIC (Enterococcus faecalis) [µM],MIC (Bacillus subtilis) [µM],MIC (Klebsiella pneumoniae) [µM],MIC (Staphylococcus aureus) [µM],CC50 at 1 h [2] [µM],MIC (Escherichia coli) [µM]
CC(C)C[C@H](NC(=O)[C@H](CCCNC(=N)N)NC(=O)CNC(=O)CNC(=O)[C@@H](N)CCCNC(=N)N)C(=O)N[C@@H](CS)C(=O)N[C@@H](Cc1ccc(O)cc1)C(=O)N[C@@H](CS)C(=O)N[C@@H](CCCNC(=N)N)C(=O)N[C@@H](CCCNC(=N)N)C(=O)N[C@@H](CCCNC(=N)N)C(=O)N[C@@H](Cc1ccccc1)C(=O)N[C@@H](CS)C(=O)N[C@H](C(=O)N[C@@H](CS)C(=O)N[C@H](C(=O)NCC(=O)N[C@@H](CCCNC(=N)N)C(N)=O)C(C)C)C(C)C (H-RGGRLCYCRRRFCVCVGR-NH2),20,4,4,8,2,8,8,14.2,8
H-FRFRFRRRRFRFRFRF-NH2,> 256,8,2,8,4,8,8,10.3,8
H-IKIKRRRFKIKI-NH2,> 256,16,8,64,4,64,32,> 128,64
H-IRIRIRRRRFRIRIRI-NH2,56,4,2,4,2,8,8,12.3,8
H-WRWRRRRFRWRW-NH2,> 256,8,4,8,2,8,8,8.7,8
H-ARARRRRFRARA-NH2,> 256,> 128,128,> 128,64,> 128,128,> 128,> 128
H-VRVRRRRFRVRV-NH2,> 256,64,8,> 128,4,64,16,> 128,32
CC[C@H](C)[C@H](NC(=O)CN)C(=O)NCC(=O)N[C@@H](C)C(=O)N[C@H](C(=O)N[C@@H](CC(C)C)C(=O)N[C@@H](CCCCN)C(=O)N[C@H](C(=O)N[C@@H](CC(C)C)C(=O)N[C@H](C(=O)N[C@H](C(=O)NCC(=O)N[C@@H](CC(C)C)C(=O)N1CCC[C@H]1C(=O)N[C@@H](C)C(=O)N[C@@H](CC(C)C)C(=O)N[C@H](C(=O)N[C@@H](CO)C(=O)N[C@@H](Cc1c[nH]c2ccccc12)C(=O)N[C@H](C(=O)N[C@@H](CCCCN)C(=O)N[C@@H](CCCNC(=N)N)C(=O)N[C@@H](CCCCN)C(=O)N[C@@H](CCCNC(=N)N)C(=O)N[C@@H](CCC(N)=O)C(=O)N[C@@H](CCC(N)=O)C(N)=O)[C@@H](C)CC)[C@@H](C)CC)[C@@H](C)O)[C@@H](C)O)C(C)C)C(C)C [MELITTIN],–,–,–,2,–,16,–,–,–
H-IRIRRRRFRIRI-NH2,> 256,4,4,16,4,16,4,128,16
